Results as given in paper PMC3355318 (Toxicological Sciences, 2012).

Assays:
HepG2 cells = settings: ref Wang et al., 2002; cited from earlier work
Huh-7 cells = settings: ref Lin et al., 2012; cited from earlier work
[1] = ref Schulz and Schmoldt, 2003; cited from earlier work
[2] = tested on: 3D spheroids constructed from immortal human C3A hepatocytes (HepG2/C3A)

Row | Structure (SMILES) | LD50 converted from published LC50 (HepG2 cells) [mg/mg] | LD50 converted from published LC50 (Huh-7 cells) [mg/mg] | Terminal elimination half-life [1] [h] | cellular ATP production at low compound concentrations [2] | LD50 ([2]; human)
1 | CC(=O)Nc1ccc(O)cc1 [APAP, Acetaminophen] | 82.32 | 4.13 | – | – | –
2 | CCCC(CCC)C(=O)O [Valproic acid, valproic acid] | – | – | 15 | not seen | –
3 | [H]/N=C(/N)N/C(=N/[H])NCCc1ccccc1 [Phenformin, phenformin] | – | – | – | not seen | –
4 | CN(C)C(=N)N=C(N)N [Metformin, metformin] | – | – | – | slightly increased | 2.76 mg compound/mg cellular protein
